Laboratory results reported in US20240398764A1, “METHODS OF TREATING DISEASES ASSOCIATED WITH SENESCENT CELL ACCUMULATION” (University of Florida Research Foundation, Incorporated, priority 2021, published 2024).

Columns and labels:
[1] = biological target: Bcl-xl (Homo sapiens, UniProt Q07817); test: Immunoblot of Bcl-xl degradation in human platelets; assay type: cell-based; design: endogenous in cells; host or cells: human platelets; conditions: different concentrations, 16 h
Description: FIG. 2A depicts immunoblots showing degradation of Bcl-xl and Bcl-2 in non-senescent WI-38 fibroblast cells (Non-SnCs) treated with varying concentrations of 753b. 3-actin was used as a loading control. FIG. 2B depicts viability of Non-SnCs treated with varying concentrations of 753b or ABT263. FIG. 2C depicts immunoblots showing degradation of Bcl-xl and Bcl-2 in ionizing radiation-induced senescent WI-38 fibroblast cells (IR-SnCs) treated with varying concentrations of 753b. 3-actin was used as a loading control. FIG. 2D depicts viability of IR-SnCs treated with varying concentrations of 753b or ABT263. FIG. 2E depicts immunoblots showing degradation of Bcl-xl and Bcl-2 in human platelets treated with varying concentrations of 753b. FIG. 2F depicts viability of human platelets treated with varying concentrations of 753b or ABT263.
The potency of 753b in degrading Bcl-xl/2 was evaluated by immunoblots after the cells or platelets were treated with different concentrations of 753b for 16 h ([…]). 753b is more cytotoxic to IR-SnCs but less toxic to Non-SnCs and platelets. The viability of Non-SnCs, IR-SnCs and platelets was measured 72 hr (Non-SnCs and IR-SnCs) and 48 hr (platelets) after they were incubated with increasing concentrations of 753b or ABT263 compared to cells/platelets with vehicle.

[2] = Hepatic fat accumulation in the STAM model (oil red staining, hepatic triglyceride); assay type: in vivo, C57BL6 mice; conditions: STZ/HFD mice; 5 mg/kg twice a week IP; postnatal day 90
Experimental: Scale bar: […]. FIG. 7B depicts percentage of oil red^+ area/field of the images depicted in FIG. 7A. Values represented means±SD. *p<0.05. […] Values represented means±SD. *p<0.05.
Experimental design: C57BL6 mice were injected with Streptozotocin (STZ) at postnatal day 2 to induce diabetes and then fed with HFD from postnatal day 30 till the end of the experiments (FIG. 5). Half of the mice started receiving vehicle and the others receiving 753b (5 mg/kg) treatment on postnatal day 45 twice a week by IP injection till the end of the experiments. A group of the mice were euthanized at postnatal day 90 (or day 45 after the initiation of the treatment) for analysis of senescent cell accumulation and steatosis. Another group of the mice were euthanized at postnatal day 150 (or day 105 after the initiation of the treatment) for analysis of liver fibrosis and cancer.
753b administration represses hepatic fat accumulation in the STAM model. The liver tissues were collected from mice at postnatal day 90 (p90 or 45 days after treatment) for the analyses. […] Quantification of oil red stained images was performed from 5 livers per group (FIG. 7B). […] Quantification was performed from 5 livers per group and was expressed as means±SD.

Chain of Bcl-xl (Q07817 whole entry): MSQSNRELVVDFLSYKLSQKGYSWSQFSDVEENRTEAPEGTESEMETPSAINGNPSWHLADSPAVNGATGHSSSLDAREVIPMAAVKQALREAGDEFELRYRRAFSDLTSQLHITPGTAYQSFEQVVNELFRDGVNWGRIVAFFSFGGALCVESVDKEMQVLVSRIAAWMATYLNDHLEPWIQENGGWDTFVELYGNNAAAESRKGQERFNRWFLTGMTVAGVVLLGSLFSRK

Cc1ncsc1-c1ccc([C@H](C)NC(=O)[C@@H]2C[C@@H](O)CN2C(=O)[C@@H](NC(=O)CCCCCCC(=O)N2CCN(C[C@]3(C)CCC(c4ccc(Cl)cc4)=C(CN4CCN(c5ccc(C(=O)NS(=O)(=O)c6ccc(N[C@H](CCN7CCOCC7)CSc7ccccc7)c(S(=O)(=O)C(F)(F)F)c6)cc5)CC4)C3)CC2)C(C)(C)C)cc1 [Compound 753b]
Bcl-xl degradation in human platelets [1]: not in human platelets | Hepatic fat accumulation (oil red staining) [2]: inhibited hepatic fat accumulation | Hepatic triglyceride level [2]: decreased levels of hepatic triglyceride
